Like-named read-outs stand apart in the source and are kept apart here.
What was measured:
Type in all cases: cell-based
Phytophthora infestans [1] = conditions: Phytophthora infestas; 1 mg/mL
Botrytis cinerea = assay: Ex vivo mycelial growth inhibition, growth rate method; conditions: 1 mg/mL
Description: (§1) 3-(3',4'-methylenedioxy phenyl)-N-n-propyl acrylamide (at a purity of 99%), 3-(3',4'-methylenedioxy phenyl)-piperidine acrylate (at a purity of 99%), the control agents, 96.5% of chlorothalonil technical (non-systemic broad-spectrum fungicide), 97.2% of carbendazim technical (systemic broad-spectrum fungicide), 97.0% of procymidone technical (systemic fungicide), 96.0% of dimethomorphtechnical ((E,Z)-4-[3-(4-chlorphenyl)3-(3,4-dimethoxy phenyl)acryloyl]morpholine, systemic fungicide), 97.0% of azoxystrobin technical (systemic broad-spectrum fungicide).
(§2) The inhibition of samples for testing on the mycelial growth of plant pathogenic fungi for testing is determined with a growth rate method. 3-(3',4'-methylenedioxy phenyl)-N-n-propyl acrylamide, 3-(3',4'-methylenedioxy phenyl)-piperidine acrylate and five control agents are dissolved with dimethyl sulfoxide (DMSO), then formulated at 5-7 concentrations of different gradients for test following the trial test results, with the same concentration of DMSO as the control solvent, each treatment in triplicate. Fungal cakes with a diameter of 4 mm are taken from the edge of the colony, inoculated into the center of a PDA plate containing different agents of different concentrations and the DMSO control, with one piece of fungal cake inoculated in each plate (with a diameter of […]), and incubated in a constant temperature incubator at a temperature of 22±1.5°C. 7 days later (10-20 days may be needed for some pathogenic fungi), the diameter of the colony is measured with a cross over method according to the mycelial growth profile of the control pathogenic fungi, then the inhibition rate of mycelial growth is calculated.
(§3) The computational formula is as below: the inhibition rate of mycelial growth (%) = [(the diameter of the control colony - the diameter of the treated colony)/the diameter of the control colony] × 100.
(§4) The inhibition results of each agent at a concentration of 1 mg/mL on the mycelial growth of plant pathogenic fungi are shown in Tables 1 and 2.

C. gossypii = assay: as above; conditions: for Average Diameter of the Colony: C. gossypii; for inhibition at 1000 µg/mL: Colletotrichum gossypii, read-out: Inhibition Rate
Description: as §1, §2, §3, §4

Colletotrichum capsici = assay: as above; conditions: 1 mg/mL
Description: as §1, §2, §3, §4

Coniella diplodiella = assay: as above; conditions: 1 mg/mL
Description: as §1, §2, §3, §4

Exserohilum turcicum = assay: as above; conditions: 1 mg/mL
Description: as §1, §2, §3, §4

F. oxysporum f. sp. lini = assay: as above; conditions: 1 mg/mL; for inhibition at 1000 µg/mL: Fusarium oxysporum
Description: as §1, §2, §3, §4

[2] = tested on: F. oxysporum f. sp. vasinfectum; assay: as above; conditions: 1 mg/mL; for inhibition at 1000 µg/mL: Fusarium oxysporum
Description: as §1, §2, §3, §4

F. verticillioide = assay: as above; conditions: 1 mg/mL
Description: as §1, §2, §3, §4

Mycosphaerlla melonis = assay: as above; conditions: 1 mg/mL
Description: as §1, §2, §3, §4

Phytophthora capsici = assay: as above; conditions: Phytophthora capsici; 1 mg/mL
Description: as §1, §2, §3, §4

Pythium aphanidermatum = assay: as above; conditions: 1 mg/mL
Description: as §1, §2, §3, §4

Rhizoctonia solani = assay: as above; conditions: Rhizoctonia solani; 1 mg/mL
Description: as §1, §2, §3, §4

Sclerotinia sclerotiorum = assay: as above; conditions: 1 mg/mL
Description: as §1, §2, §3, §4

Thanatephorus cucumeris = assay: as above; conditions: 1 mg/mL
Description: as §1, §2, §3, §4

Fusarium graminearum = assay: microbe, parasite or virus in culture
F. graminearum = assay: microbe, parasite or virus in culture; conditions: for Average Diameter of the Colony: F. graminearum, 1 mg/mL; for inhibition at 1000 µg/mL: Fusarium graminearum, read-out: Inhibition Rate
Pyricularia grisea = assay: microbe, parasite or virus in culture; conditions: for Average Diameter of the Colony: 1 mg/mL; for inhibition at 1000 µg/mL: read-out: Inhibition Rate
Phytophthora infestans [3] = assay: microbe, parasite or virus in culture; conditions: for Average Diameter of the Colony: 1 mg/mL; for inhibition at 1000 µg/mL: read-out: Inhibition Rate

Structure (SMILES)	Average Diameter of the Colony (Botrytis cinerea)	inhibition at 1000 µg/mL (Botrytis cinerea)	Average Diameter of the Colony (C. gossypii; 1 mg/mL)	Average Diameter of the Colony (Exserohilum turcicum)	inhibition at 1000 µg/mL (Exserohilum turcicum)	Average Diameter of the Colony (F. oxysporum f. sp. lini)	inhibition at 1000 µg/mL (F. oxysporum f. sp. lini)	Average Diameter of the Colony [2]	inhibition at 1000 µg/mL [2]	Average Diameter of the Colony (Mycosphaerlla melonis)	inhibition at 1000 µg/mL (Mycosphaerlla melonis)	Average Diameter of the Colony (Phytophthora capsici)	inhibition at 1000 µg/mL (Phytophthora capsici)	Average Diameter of the Colony (Sclerotinia sclerotiorum)	inhibition at 1000 µg/mL (Sclerotinia sclerotiorum)	Average Diameter of the Colony (F. graminearum)	inhibition at 1000 µg/mL (F. graminearum)	Average Diameter of the Colony (Pyricularia grisea)	inhibition at 1000 µg/mL (Pyricularia grisea)	Average Diameter of the Colony (Phytophthora infestans [3])	also measured
COC(=O)Nc1nc2ccccc2[nH]1 [Carbendazim, carbendazim]	0.00 cm	100%	0.00 cm	9.00 cm	0%	0.00 cm	100%	0.00 cm	100%	0.00 cm	100%	0.00 cm	100%	0.00 cm	100%	1.17 cm	87%	0.00 cm	100%	6.80 cm	Average Diameter of the Colony (Phytophthora infestans [1]): 0.00 cm; inhibition at 1000 µg/mL (C. gossypii; C. cossypii, 1 mg/mL): 100%; Average Diameter of the Colony (Colletotrichum capsici): 0.00 cm; inhibition at 1000 µg/mL (Colletotrichum capsici; Colletotrichum truncatum): 100%; Average Diameter of the Colony (Coniella diplodiella): 0.00 cm; inhibition at 1000 µg/mL (Coniella diplodiella): 100%; Average Diameter of the Colony (F. verticillioide): 0.00 cm; inhibition at 1000 µg/mL (F. verticillioide): 100%; Average Diameter of the Colony (Pythium aphanidermatum): 0.00 cm; inhibition at 1000 µg/mL (Pythium aphanidermatum): 100%; Average Diameter of the Colony (Rhizoctonia solani): 0.00 cm; inhibition at 1000 µg/mL (Rhizoctonia solani): 100%; Average Diameter of the Colony (Thanatephorus cucumeris): 0.00 cm; inhibition at 1000 µg/mL (Thanatephorus cucumeris): 100%; Average Diameter of the Colony (Fusarium graminearum; 1 mg/mL): 0.00 cm; inhibition at 1000 µg/mL (Fusarium graminearum; read-out: Inhibition Rate): 100%
COc1ccc(C(=CC(=O)N2CCOCC2)c2ccc(Cl)cc2)cc1OC [Dimethomorph, (E,Z)-4-[3-(4-chlorphenyl)3-(3,4-dimethoxyphenyl)acryloyl]morpholine]	2.33 cm	74.1%	3.93 cm	6.50 cm	27.8%	6.27 cm	30.3%	6.03 cm	33%	2.13 cm	76.3%	0.00 cm	100%	4.77 cm	47%	6.23 cm	30.8%	6.67 cm	25.9%	0.00 cm	inhibition at 1000 µg/mL (C. gossypii; C. cossypii, 1 mg/mL): 56.3%; inhibition at 1000 µg/mL (Phytophthora infestans [3]): 100%
CO/C=C(/C(=O)OC)c1ccccc1Oc1cc(Oc2ccccc2C#N)ncn1 [Azoxystrobin, azoxystrobin]	4.33 cm	51.9%	5.37 cm	6.50 cm	27.8%	5.93 cm	34.1%	3.03 cm	66.3%	3.93 cm	56.3%	6.70 cm	25.6%	4.40 cm	51.1%	6.23 cm	30.8%	4.67 cm	48.1%	0.00 cm	inhibition at 1000 µg/mL (C. gossypii): 40.3%; inhibition at 1000 µg/mL (Phytophthora infestans [3]): 100%

From patent EP3818828A1 (priority 2019, dated 2021)
